Measured values taken from US10660900B2 (priority 2014, dated 2020).
Values joined by “and” are separate entries in the source; they are usually repeats but may differ in a detail not shown here. Identical values can stand only once. Like-named read-outs stand apart in the source and are kept apart here.

Columns and labels:
[1] = Time to resumption of opioid substitution treatment and withdrawal scales (COWS, SOWS, OOWS); assay type: in vivo, human
[2] = QT interval in opioid-dependent patients; assay type: in vivo, human; conditions: 60, 120, 180 mg; first 24 hours; correlated with serum concentration
Protocol: Patients' QT intervals were evaluated at regular time points throughout the study. […] A goodness-of-fit plot for the observed and predicted relation between noribogaine plasma levels and ΔΔQTc1 is provided in FIG. 9C.

calf OPRM = calf OPRM (Bos taurus, UniProt P79350); conditions: cited from earlier work; for Ki: read-out: Ki
Sequence of calf OPRM (P79350 whole entry): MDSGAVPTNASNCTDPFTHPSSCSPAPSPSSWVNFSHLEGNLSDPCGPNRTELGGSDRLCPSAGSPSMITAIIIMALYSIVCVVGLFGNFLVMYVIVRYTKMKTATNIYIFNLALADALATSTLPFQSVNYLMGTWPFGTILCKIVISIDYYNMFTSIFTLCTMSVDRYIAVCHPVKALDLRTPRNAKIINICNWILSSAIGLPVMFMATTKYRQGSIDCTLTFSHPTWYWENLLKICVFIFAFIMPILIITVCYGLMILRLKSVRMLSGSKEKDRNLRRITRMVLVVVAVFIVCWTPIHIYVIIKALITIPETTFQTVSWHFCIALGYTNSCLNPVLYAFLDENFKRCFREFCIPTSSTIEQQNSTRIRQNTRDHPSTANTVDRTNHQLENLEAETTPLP

[3] = system: human opioid receptor delta (OPRD); conditions: Pearl, Herrick-Davis et al. 1995; cited from earlier work
[4] = biological target: opioid receptor delta (OPRD) (Bos taurus, UniProt F1N083); conditions: printed in the SEM column; literature; cited from earlier work
Sequence of opioid receptor delta (OPRD) (F1N083 1-372): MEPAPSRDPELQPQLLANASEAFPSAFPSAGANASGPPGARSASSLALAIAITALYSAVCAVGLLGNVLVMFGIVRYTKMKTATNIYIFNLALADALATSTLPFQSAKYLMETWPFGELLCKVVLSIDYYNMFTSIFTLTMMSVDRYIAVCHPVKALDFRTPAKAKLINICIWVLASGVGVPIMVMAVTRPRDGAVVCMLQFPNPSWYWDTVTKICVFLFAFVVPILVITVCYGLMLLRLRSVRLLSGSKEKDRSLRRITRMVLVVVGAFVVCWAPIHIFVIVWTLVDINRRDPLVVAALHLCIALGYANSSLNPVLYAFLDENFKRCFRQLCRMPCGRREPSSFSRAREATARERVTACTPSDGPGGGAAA

OPRK [5] = biological target: T1, OPRK (Homo sapiens, UniProt P41145); test: biochemical; assay type: binding; set-up: expressed in transfected cells; host or cells: CHO-K1; conditions: [3H]-U69,593 Binding; This work
T1 sequence (P41145 whole entry): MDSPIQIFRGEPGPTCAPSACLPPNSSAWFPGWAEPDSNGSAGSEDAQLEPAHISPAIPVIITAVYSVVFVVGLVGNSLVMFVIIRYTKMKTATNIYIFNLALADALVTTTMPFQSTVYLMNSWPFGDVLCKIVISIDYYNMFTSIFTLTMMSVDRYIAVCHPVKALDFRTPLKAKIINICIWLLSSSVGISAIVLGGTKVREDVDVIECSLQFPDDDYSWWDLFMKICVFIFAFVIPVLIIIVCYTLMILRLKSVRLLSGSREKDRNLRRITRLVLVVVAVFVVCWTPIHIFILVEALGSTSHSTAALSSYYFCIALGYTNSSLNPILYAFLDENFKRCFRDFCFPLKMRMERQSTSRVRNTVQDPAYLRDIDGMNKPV

OPRK [6] = biological target: T1, OPRK; test: biochemical; set-up: expressed in transfected cells; host or cells: CHO-K1
OPRK [7] = biological target: T1, OPRK; test: Bias quantification G-protein/Beta-arrestin2; set-up: expressed in transfected cells; host or cells: CHO-K1
Protocol: Coupling efficiency (e-coupling) values indicated the relationship between the apparent binding affinity Ki versus the apparent functional potency EC50 of a given agonist ligand and used the equation pKi-pEC50. […] For inhibitory ligands, e-signal was calculated using maximal level of inhibition (Imax) normalized from 0 (basal, buffer) to 1 (agonist without inhibitor). Bias-coupling (quantification of pathway bias) was evaluated by subtracting the EC50 or the Ke issued from the G-protein pathway assays by those issued from β-arrestin pathway assays for a given ligand and in a linear (nM) scale. Bias-efficacy in favor of the G-protein pathway was evaluated by dividing the functional activation and the functional inhibition maximum responses (e-signal) from the G-protein pathway by the beta-arrestin pathway assays for a given ligand.

human OPRM = human OPRM (Homo sapiens, UniProt P35372); test: biochemical; set-up: expressed in transfected cells; host or cells: CHO-K1 (cell line provided by Dr. Toll, Torrey Pines Institute); membranes prepared in house
Sequence of human OPRM (P35372 whole entry): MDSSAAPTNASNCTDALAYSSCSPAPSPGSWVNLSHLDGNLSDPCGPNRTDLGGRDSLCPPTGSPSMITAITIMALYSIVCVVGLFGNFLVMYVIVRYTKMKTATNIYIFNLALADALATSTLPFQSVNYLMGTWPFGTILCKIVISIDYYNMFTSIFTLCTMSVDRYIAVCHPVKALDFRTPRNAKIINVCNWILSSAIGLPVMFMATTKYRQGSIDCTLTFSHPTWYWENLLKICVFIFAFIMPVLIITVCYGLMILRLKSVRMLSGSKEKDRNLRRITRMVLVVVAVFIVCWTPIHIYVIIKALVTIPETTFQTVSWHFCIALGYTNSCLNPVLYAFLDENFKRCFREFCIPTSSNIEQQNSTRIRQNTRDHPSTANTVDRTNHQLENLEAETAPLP

CC[C@H]1CC2C[C@H]3c4[nH]c5ccc(O)cc5c4CCN(C2)C13 [Noribogaine, noribogaine]
withdrawal symptoms (COWS, OOWS, SOWS), first six hours after dosing ([1]; 120 mg noribogaine): fewer withdrawal symptoms than the other patients
average time to resumption of opioids (OST) ([1]; single 120 mg dose): greater than 20 hours
QT interval prolongation (ΔQTcI) [2]: dose-dependent increase in QT interval prolongation
Ki (calf OPRM; calf OPRM): 1.52 µM
pKi (calf OPRM; calf receptor, literature): 5.6
Ki (calf OPRM; calf receptor, literature): 2.66 µM
less affine at OPRD than at OPRK [3]: ~30 ×
Ki [4]: 24.7 µM
pKi (OPRK [5]): 6.1
Efficacy (Emax) (OPRK [6]): 70%
Efficacy (inhibition) (OPRK [6]): −30% and −25%
e-coupling (pKi-pEC50) (OPRK [6]): 1.08
e-coupling, G-protein Pathway (OPRK [6]): 1.72 and 1.08
own reduced signal level to which rival agonist signal is leveled down (OPRK [6]): 70%
pEC50 (OPRK [6]): 5.1
Ki (OPRK [6]; Ke): 12 µM and 24 µM
EC50 (OPRK [6]; read-out: EC50): 8.75 µM and 8.7 µM
Emax (OPRK [6]; read-out: Efficacy (Emax)): 72 ± 3.8%
efficacy bias relative to 6′GNTI (OPRK [7]): 2.4 ×
Bias-coupling, Bias G-protein/Beta-arrestin2 (OPRK [7]; Activation): 32
Bias-efficacy, Bias G-protein/Beta-arrestin2 (OPRK [7]; Activation): 0.59
Bias-coupling, Bias G-protein/Beta-arrestin2 (OPRK [7]; Inhibition): 144
Bias-efficacy, Bias G-protein/Beta-arrestin2 (OPRK [7]; Inhibition): −0.35
Efficacy (Emax) (human OPRM): 9.4%
Efficacy (inhibition) (human OPRM): −100~ %
e-coupling (pKi-pEC50) (human OPRM): 1.02
e-coupling (pKi-pKe) (human OPRM): 1.10
pEC50 (human OPRM): 4.8
right-shift of EC50 of DAMGO and morphine (human OPRM): ~1 log
Ki (human OPRM; Ke): 19 µM and 28 µM
Emax (human OPRM; read-out: Efficacy (Emax)): 10%
